Experimental data: paper PMC12669040, “Tumour-specific STING agonist synthesis via a two-component prodrug system” (Nature Chemistry, 2025)
Where “and” joins values, the source holds several entries; their conditions need not be identical. Equal values may be shown once. Read-outs that look alike come from different tables or passages of the source.

How the values were obtained:
serum cytokines = test: Multiplexed cytokine profiling of sera, MC38 model; format: in vivo, C57BL/6 mice; conditions: sera obtained on Day 9, PBS = 1
Procedure: This study used Luminex xMAP technology for multiplexed quantification of 44 mouse cytokines, chemokines and growth factors. The multiplexing analysis was performed using the Luminex 200 system (Luminex) by Eve Technologies Corp. […] markers were simultaneously measured in the samples using Eve Technologies’ Mouse Cytokine 44-Plex Discovery Assay, which consists of two separate kits, one 32-plex and one 12-plex (MilliporeSigma), following the manufacturer’s protocol. […] The sensitivities of individual analytes are available in the MilliporeSigma MILLIPLEX MAP protocol. […] MC-38 cells were inoculated into the right flank of C57BL/6 mice and treated once tumors reached about 90 mm^3. […] Source data

[1] = design: method as in PMID 32820094; conditions: cited from earlier work
[2] = tested on: STING pathway effectors (pSTING, pTBK1, pIRF3) in THP-1 Lucia ISG cells; test: Western blots of STING pathway activation; format: cell-based, human; conditions: 5 μM
Procedure: THP-1 Lucia ISG cells were maintained as described above. […] Cells were treated with cycloheximide (50 µg ml^−1) and incubated for 50 min at 37 °C. Treated cells were then combined with the growth medium containing SC2S dimer (5 µM final concentration) to 1 × 10^6 cells ml^−1 and incubated at 37 °C. At each timepoint, a portion (3 ml) of the cell suspension was withdrawn. Withdrawn cells were pelleted (300g, 3 min), washed with PBS (1 ml), pelleted again (300g, 3 min) and resuspended to a density of 1 × 10^7 cells ml^−1 in ice-cold lysis buffer (25 mM Tris pH 7.6, 150 mM NaCl, 1% NP-40, 1% sodium deoxycholate and 0.1% SDS) supplied with protease/phosphatase inhibitor tablets (Pierce A32961) and freshly prepared phenylmethylsulfonyl fluoride (1 mM). Lysates were further disrupted by sonication at low power (5 s × 3 cycles). Sonicated lysates were clarified by centrifugation at 4 °C (13,000g, 5 min). […] Samples were reduced and denatured at 95 °C for 5 min before being separated on a precast polyacrylamide gel (Invitrogen NuPAGE 4–12% Bis-Tris, 20 µg total protein per lane). Protein bands were then transferred to a polyvinylidene difluoride membrane (Invitrogen iBlot2). […]

[3] = LC–MS/MS analysis of in situ SC2S formation (tissue distribution); format: in vivo, BALB/c mice; conditions: for concentration at 4 h / concentration at 2 h / concentration at 1 h: BALB/c, mouse
Procedure: The blood, tumour, lung, kidney, liver and spleen were collected for each mouse. Three mice treated with vehicle were included as control samples. Whole blood samples were centrifuged at 2,000g, 4 °C for 10 min. Supernatant plasma was aspirated into an Eppendorf tube and frozen at −80 °C. Tumour and organ tissues were snap-frozen in liquid nitrogen and stored at −80 °C until further analysis. The plasma samples (10-µl aliquots) were prepared by protein precipitation extraction. The organic layer was evaporated to dryness and reconstituted in a solution equivalent to the initial chromatographic starting conditions. The tissue samples were analysed by homogenization to give a 200 […] concentration. The homogenised tissue samples (10-µl aliquots) were then taken through the same preparation procedure as the plasma samples. All samples were analysed using the PKB Core Facility’s 6500 LC–MS/MS system, in negative ion mode. The chromatography was carried out using a gradient method on a Kinetex EVO C18 column (50 × 2.1 mm). Analysis was conducted in four batches, consisting of calibration standards, quality control samples, blank control samples, internal standard-only samples and study samples. Calibration curves were constructed using linear regression with a 1/x^2 weighting. A calibration range of 1–500 ng ml^−1 (5–2,500 ng g^−1 in tissue) was used. Precision and accuracy were well within the PK/B core facility’s acceptance criteria of ±20%. The LC–MS/MS method was developed and qualified ahead of the sample analysis. The performance of the method met normal Core Facility acceptance criteria for analysis.

THP-1 cells = test: Dilution limits of N1/E4 combination to activate THP-1 cells (IFN-β ELISA)

COc1cc2cc(C(=O)CCC(=O)O)sc2cc1OC [MSA2] showed a CCL3 (serum cytokines) of 1.442, a CCL4 (serum cytokines) of 0.7068 and a CCL12 (serum cytokines) of 5.215. It also gave a CXCL2 (serum cytokines) of 1.851, an EPO (serum cytokines) of 1.36 and a G-CSF (serum cytokines) of 2.042. The IFNγ (serum cytokines) was 0.4672, the IL-1β (serum cytokines) was 1.9772 and the IL-3 (serum cytokines) was 0.512. It also gave an IL-6 (serum cytokines) of 4.186, an IL-12p40 (serum cytokines) of 0.2035 and an IL-12p70 (serum cytokines) of 1.442. For the same compound, the IL-15 (serum cytokines) was 0.4244, the IL-16 (serum cytokines) was 1.895 and the IL-17 (serum cytokines) was 1.777. For the same compound, the M-CSF (serum cytokines) was 0.6463, the TARC (serum cytokines) was 1.519 and the “tumour and plasma concentration after intratumoural injection” value [1] was “its concentration in the tumour decreased rapidly past the 2-h timepoint, and substantial leakage into the plasma occurred”.
In the case of COc1cc2sc(C(=O)CCC(=O)O)cc2cc1SCCSc1cc2cc(C(=O)CCC(=O)O)sc2cc1OC [SC2S], the “phosphorylation of major STING pathway proteins” value [2] is reported as “confirmed the phosphorylation of major STING pathway proteins”, the “Blood Calculated Concentration” value ([3]; 1h, individual samples) is reported as “BLQ” and the “Kidney Calculated Concentration” value ([3]; 1h, individual samples) is reported as “BLQ”. The “Lung Calculated Concentration” value ([3]; 1h, individual samples) was “BLQ”, the “Tumour Calculated Concentration” value ([3]; 1h, individual samples) was 64.6 ng/mL and 323 ng/g and 11.6 ng/mL and 58.1 ng/g and 12.1 ng/mL and 60.6 ng/g and the “Blood Calculated Concentration” value ([3]; 2h, individual samples) was “BLQ”. For the same compound, the “Liver Calculated Concentration” value ([3]; 2h, individual samples) was “BLQ”, the “Spleen Calculated Concentration” value ([3]; 2h, individual samples) was “BLQ” and the “Tumour Calculated Concentration” value ([3]; 2h, individual samples) was 17.8 ng/mL and 89.2 ng/g and 62.2 ng/mL and 311 ng/g and 4.45 ng/mL and 22.2 ng/g. The “Kidney Calculated Concentration” value ([3]; 4h, individual samples) was “BLQ”, the “Spleen Calculated Concentration” value ([3]; 4h, individual samples) was “BLQ” and the “Tumour Calculated Concentration” value ([3]; 4h, individual samples) was 12.1 ng/mL and 60.4 ng/g and 19.6 ng/mL and 98.2 ng/g and 4.66 ng/mL and 23.3 ng/g. For the same compound, the “Kidney Calculated Concentration” value ([3]; 8h, individual samples) was “BLQ”, the “Liver Calculated Concentration” value ([3]; 8h, individual samples) was “BLQ” and the “Spleen Calculated Concentration” value ([3]; 8h, individual samples) was “BLQ”. The “Tumour Calculated Concentration” value ([3]; 8h, individual samples) was “BLQ”, the “Kidney Calculated Concentration” value ([3]; 24h, individual samples) was “BLQ” and the “Spleen Calculated Concentration” value ([3]; 24h, individual samples) was “BLQ”. The concentration at 4 h ([3]; liver, 4h, read-out: Liver Mean concentration) was 9.3 ng/g, the concentration at 4 h ([3]; liver, other: β-GlcA-N1 intraperitoneal (IP) + E4 intratumoral (IT), 4h, individual samples, read-out: Liver Calculated Concentration) was 1.86 ng/mL and 9.3 ng/g and the concentration at 2 h ([3]; plasma, 2h, individual samples, read-out: Blood Calculated Concentration) was 3.03 ng/mL. It also gave a concentration at 2 h ([3]; plasma, 2h, read-out: Blood Mean concentration) of 3.03 ng/mL, a concentration at 1 h ([3]; plasma, other: β-GlcA-N1 intraperitoneal (IP) + E4 intratumoral (IT), 1h, individual samples, read-out: Blood Calculated Concentration) of 1.29 ng/mL and a concentration at 1 h ([3]; plasma, other: β-GlcA-N1 intraperitoneal (IP) + E4 intratumoral (IT), 1h, read-out: Blood Mean concentration) of 1.29 ng/mL. For the same compound, the concentration at 2 h ([3]; tumour, 2h, read-out: Tumour Mean concentration) was 141 ng/g, the concentration at 4 h ([3]; tumour, 4h, read-out: Tumour Mean concentration) was 60.7 ng/g and the concentration at 1 h ([3]; tumour, other: β-GlcA-N1 intraperitoneal (IP) + E4 intratumoral (IT), 1h, read-out: Tumour Mean concentration) was 147 ng/g. The “Response from SC2S, OD 450” value (THP-1 cells; 0.195312 uM) was 0.075, the “Response from SC2S, OD 450” value (THP-1 cells; 0.390625 uM) was 0.634 and the “Response from SC2S, OD 450” value (THP-1 cells; 0.78125 uM) was 1.146. For the same compound, the “Response from SC2S, OD 450” value (THP-1 cells; 1.5625 uM) was 2.392, the “Response from SC2S, OD 450” value (THP-1 cells; 3.125 uM) was 2.683 and the “Response from SC2S, OD 450” value (THP-1 cells; 6.25 uM) was 2.764. The “Response from SC2S, OD 450” value (THP-1 cells; 12.5 uM) was 2.752 and the “Response from SC2S, OD 450” value (THP-1 cells; 25 uM, defined as 100% activation) was 2.757.
